Key:
[1] = molecular target: human catalytic domain HDAC4 protein (amino acids 648-1032) (Homo sapiens (Human), UniProt P56524); experiment: Inhibition of HDAC4 catalytic domain enzymatic activity, fluorogenic substrate Boc-Lys(Tfa)-AMC; conditions: HDAC4 catalytic domain enzyme, read-out: Biochemical HDAC4 IC50
Excerpt: Analysis of Inhibition of HDAC4 with Class IIa Histone Deacetylase (HDAC) Inhibitors
The potency of Class IIa Histone Deacetylase (HDAC) inhibitors is quantified by measuring the Histone Deacetylase 4 (HDAC4) catalytic domain enzymatic activity using the fluorogenic substrate, Boc-Lys(Tfa)-AMC. The substrate is deacetylated to Boc-Lys-AMC by HDAC4. Cleavage by trypsin results in the release of the fluorophore AMC from the deacetylated substrate. The fluorescence of the sample is directly related to the histone deacetylase activity in the sample.
Serially dilute HDAC inhibitor compounds. […] Stocks of 6 μl aliquots of the 10 mM compound in DMSO are prepared and stored at […]. From one stock aliquot of each compound to be tested and the reference compound, a 16-point serial dilution is prepared according to Table 1 using a 125 μl 16-channel Matrix multi-channel pipette (Matrix Technologies Ltd).
2 μl (200×) of each diluted solution and each control (full activity: 100% DMSO alone or full inhibition 1 mM) is stamped into V-bottomed polypropylene 384-well compound plates using either the Bravo (384-well head from Agilent) or 12.5 μl 16-channel Matrix multi-channel pipette (Matrix Technologies Ltd).
Prepare HDAC4 catalytic domain enzyme (0.2 μg/mL).
Prepare 5× ([…]) Boc-Lys(Tfa)-AMC Substrate. 5× (50 μM) substrate is prepared just prior to the addition to the assay. A 1 mM substrate stock is made by diluting a 100 mM Boc-Lys(Tfa)-AMC in DMSO solution 1:100 by adding it drop-wise to assay buffer (equilibrated to r.t.) while vortexing at slow speed to prevent precipitation. The 5× substrate is prepared by diluting the 1 mM substrate solution 1:20 by adding it drop-wise to assay buffer (equilibrated to r.t.) while vortexing at slow speed to prevent precipitation.
Prepare 3× (30 μM) Developer/Stop Solution.
Assay. 5 μl of each solution of 1:20 diluted compound from above is transferred to a clear bottomed, black, 384-well assay plate using the Bravo or the Janus (384-well MDT head from Perkin Elmer). Using a 16-channel Matrix multi-channel pipette, 35 μl of the working solution of HDAC4 catalytic domain enzyme (0.2 μg/mL in assay buffer) is transferred to the assay plate. […] The assay plate is then shaken for two minutes on an orbital shaker at 900 rpm (rotations per minute). Next the plate is incubated for 15 minutes at 37° C. The reaction is stopped by adding 25 μl of 3× (3 μM) developer/stop solution to the assay plates using either the Bravo, Janus or a 16-channel Matrix multi-channel pipette. Assay plates are then shaken for 5 minutes on an orbital shaker at 1200 rpm. Next, the assay plates are incubated at 37° C. for 1 hour in a tissue culture incubator.

[2] = system: cellular histone deacetylase enzymatic activity in Jurkat E6-1 cells; experiment: Inhibition of cellular HDAC activity in Jurkat E6-1 cells, fluorogenic substrate Boc-Lys(Tfa)-AMC; format: cell-based; conditions: Homo sapiens, read-out: Cell IC50
Excerpt: Analysis of Inhibition of Cellular HDAC Activity with Class IIa Histone Deacetylase (HDAC) Inhibitors
The potency of Class IIa Histone Deacetylase (HDAC) inhibitors is quantified by measuring the cellular histone deacetylase enzymatic activity using the fluorogenic substrate, Boc-Lys(Tfa)-AMC. After penetration in Jurkat E6-1 cells, the substrate is deacetylated to Boc-Lys-AMC. After cell lysis and cleavage by trypsin, the fluorophore AMC is released from the deacetylated substrate only. The fluorescence of the sample is directly related to the histone deacetylase activity in the sample.
Jurkat E6.1 cell culture and plating. Jurkat E6.1 cells are cultured according to standard cell culture protocols in Jurkat E6.1 Growth Media (RPMI without phenol red, 10% FBS, 1 mM HEPES, and 1 mM Sodium Pyruvate). Jurkat E6.1 cells are counted using a Coulter Counter and resuspended in Jurkat E6.1 growth media at a concentration of 75,000 cells/35 μl. 35 μl or 75,000 cells is seeded into Greiner microtitre assay plates. The plates are then incubated at 37° C. and 5% CO2 while other assay components are being prepared.
Serially dilute HDAC inhibitor compounds. Serial dilutions of the HDAC inhibitors and control reference compound (1-(5-(3-((4-(1,3,4-oxadiazol-2-yl)phenoxy)methyl)-1,2,4-oxadiazol-5-yl)thiophen-2-yl)-2,2,2-trifluoroethanone) are made by first resuspending the lyophilized compound to a final concentration of 10 mM in […]. Stocks of 70 μl aliquots of the 10 mM compound in DMSO are prepared and stored at −20° C. From one stock aliquot of each compound to be tested and the reference compound, a 16-point serial dilution is prepared according to Table 1 using a 125 μl 16-channel Matrix multi-channel pipette.
2 μl (200×) of each diluted solution and each control (full activity: 100% DMSO alone or full inhibition 1 mM) is stamped into V-bottom polypropylene 384-well compound plates using either the Bravo, Janus, or 12.5 μl 16-channel Matrix multi-channel pipette. Each well with the 200× compound solution is diluted 1:20 by the addition of 38 μl Jurkat assay buffer+DMSO (9.5% DMSO, RPMI without phenol red, 0.09% FBS, 9 mM Hepes, and 0.9 mM Sodium Pyruvate equilibrated to r.t.)
Prepare 5× (500 μM) Boc-Lys(Tfa)-AMC substrate. 5× (500 μM) substrate is prepared just prior to the addition to the assay. The 5× substrate is prepared by diluting a 100 mM Boc-Lys(Tfa)-AMC in DMSO solution 1:200 by adding it drop-wise to Jurkat assay medium (RPMI without phenol red, 0.1% FBS, 10 mM Hepes, and 1 mM Sodium Pyruvate equilibrated to 37° C.) while vortexing at slow speed to prevent precipitation.
Prepare 3× Lysis Buffer. 10 mL of 3× lysis buffer is prepared with 8.8 mL of 3× stock lysis buffer (50 mM Tris-HCl, pH 8.0, 137 mM NaCl, 2.7 mM KCl, 1 mM MgCl2, 1% Nonidet P40 Substitute equilibrated to r.t.) and 1.2 mL of 3 mg/mL Trypsin equilibrated to r.t.
Assay. 5 μl of each solution of 1:20 diluted compound from above is transferred to the Greiner microtitre assay plates with 75,000 cells/well using the Bravo. Cells are then incubated for 2 hours at 37° C. and 5% CO2. The assay is then started by adding 10 μl of 5× (500 μM) substrate to the assay plate using either the Bravo or 16-channel Matrix multi-channel pipette. The cells are then incubated for 3 hours at 37° C. and 5% CO2. Next, 25 μl of 3× lysis buffer is added to each well using either the 125 μl 16 channel pipette or the Bravo. The assay plate is then incubated overnight (15-16 hours) at 37° C. and 5% CO2. The following day, the plates are shaken on an orbital shaker for 1 minute at 900 rpm. Finally the top read fluorescence (Excitation: 355 nm, Emission: 460 nm) is measured using PerkinElmer EnVision.

Sequence of human catalytic domain HDAC4 protein (amino acids 648-1032) (P56524 648-1032): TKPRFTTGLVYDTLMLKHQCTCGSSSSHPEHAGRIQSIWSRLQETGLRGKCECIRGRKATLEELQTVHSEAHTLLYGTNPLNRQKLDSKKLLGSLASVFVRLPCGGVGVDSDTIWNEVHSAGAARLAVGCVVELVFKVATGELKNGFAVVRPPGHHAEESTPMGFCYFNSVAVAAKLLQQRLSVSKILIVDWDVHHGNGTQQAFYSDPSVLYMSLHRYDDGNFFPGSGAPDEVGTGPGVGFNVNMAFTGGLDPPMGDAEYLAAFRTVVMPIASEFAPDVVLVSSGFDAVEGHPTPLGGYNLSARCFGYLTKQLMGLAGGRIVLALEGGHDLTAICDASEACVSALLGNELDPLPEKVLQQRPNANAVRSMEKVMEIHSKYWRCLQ

IC50 [1] | IC50 [2] | SMILES
330 nM | 1700 nM | COc1ncc([C@H]2CC[C@@](C(=O)NO)(c3cccc(F)c3C)C2)cc1F (relative stereo) [Example 44, (1S,3S*)-1-(3-fluoro-2-methylphenyl)-3-(5-fluoro-6-methoxypyridin-3-yl)-N-hydroxycyclopentanecarboxamide]
680 nM | 540 nM | Cc1c(F)cccc1[C@]1(C(=O)NO)CC[C@H](Oc2ccccc2)CC1 [Example 101, (1r,4r)-1-(3-fluoro-2-methylphenyl)-N-hydroxy-4-phenoxycyclohexanecarboxamide]
> 50000 nM | > 50000 nM | O=C(NO)[C@]1(c2ccccc2)CC[C@H](c2cncc(F)c2)CC1 [Example 14, (1s,4s)-4-(5-fluoropyridin-3-yl)-N-hydroxy-1-phenylcyclohexanecarboxamide]
6900 nM | 41100 nM | O=C(NO)C1(c2ccccc2)CCCCCC1 [Example 106, N-hydroxy-1-phenylcycloheptanecarboxamide]
– | 480 nM | Cc1ccccc1[C@H]1CC[C@@](C(=O)NO)(c2cccc(F)c2C)C1 (relative stereo) [Example 8, (±)-(1S*,3S*)1-(3-fluoro-2-methylphenyl)-N-hydroxy-3-(o-tolyl)cyclopentane carboxamide]
– | > 50000 nM | Cc1c(F)cccc1[C@]1(C(=O)NO)CC[C@H](N2CCCC2)C1 (relative stereo) [Example 88, (1 S,3S*)-1-(3-fluoro-2-methylphenyl)-N-hydroxy-3-(pyrrolidin-1-yl)cyclopentanecarboxamide]
– | 610 nM | Cc1c(F)cccc1[C@]1(C(=O)NO)CC[C@H](c2ccccc2)C1 (stereo in doubt) [Example 6, (1S*,3S*)-1-(3-fluoro-2-methylphenyl)-N-hydroxy-3-phenylcyclopentanecarboxamide]
– | 190 nM | Cc1c(F)cccc1[C@]1(C(=O)NO)CC[C@@H](c2ccc3c(c2)CN(C2CC2)C3=O)C1 (relative stereo) [Example 59, (1S,3R*)-3-(2-cyclopropyl-1-oxoisoindolin-5-yl)-1-(3-fluoro-2-methylphenyl)-N-hydroxycyclopentanecarboxamide]
– | 290 nM | CCN(CC)CCn1cc([C@@H]2CC[C@@](C(=O)NO)(c3cccc(F)c3C)C2)cn1 (relative stereo) [Example 51, (1S,3R*)-3-(1-(2-(diethylamino)ethyl)-1H-pyrazol-4-yl)-1-(3-fluoro-2-methylphenyl)-N-hydroxycyclopentanecarboxamide]
– | 440 nM | Cc1c(F)cccc1[C@@]1(C(=O)NO)CC[C@H](c2ccccc2)C1 (stereo in doubt) [Example 4, (1R*,3S*)-1-(3-fluoro-2-methylphenyl)-N-hydroxy-3-phenylcyclopentanecarboxamide]
– | 150 nM | CCCN(CCC)C[C@@H](C)NC(=O)c1ccc([C@H]2CC[C@@](C(=O)NO)(c3cccc(F)c3C)C2)cc1 (relative stereo) [Example 53, N—((R)-1-(dipropylamino)propan-2-yl)-4-((1S*,3S)-3-(3-fluoro-2-methylphenyl)-3-(hydroxycarbamoyl)cyclopentyl)benzamide]
– | 180 nM | CCCN(CCC)C[C@@H](C)NC(=O)c1ccc([C@@H]2CC[C@@](C(=O)NO)(c3cccc(F)c3C)C2)cc1 (relative stereo) [Example 52, N—((R)-1-(dipropylamino)propan-2-yl)-4-((1R*,3S)-3-(3-fluoro-2-methylphenyl)-3-(hydroxycarbamoyl)cyclopentyl)benzamide]
– | 380 nM | Cc1c(F)cccc1[C@]1(C(=O)NO)CC[C@H](c2ccc3sc(C4CC4)nc3c2)C1 (relative stereo) [Example 79, (1S,3S*)-3-(2-Cyclopropylbenzo[d]thiazol-5-yl)-1-(3-fluoro-2-methylphenyl)-N-hydroxycyclopentanecarboxamide]
– | > 50000 nM | Cc1c(F)cccc1[C@]1(C(=O)NO)CC[C@@H](N2CCCC2)C1 (relative stereo) [Example 87, (1 S,3R*)-1-(3-fluoro-2-methylphenyl)-N-hydroxy-3-(pyrrolidin-1-yl)cyclopentanecarboxamide]
– | 160 nM | Cc1c([C@]2(C(=O)NO)CC[C@@H](c3ccc4cnn(C)c4c3)C2)ccc(F)c1F (relative stereo) [Example 86, (1S,3R*)-1-(3,4-difluoro-2-methylphenyl)-N-hydroxy-3-(1-methyl-1H-indazol-6-yl)cyclopentanecarboxamide]
– | 830 nM | Cc1c(F)cccc1[C@]1(C(=O)NO)CC[C@@H](c2cnn(CCN3CCOCC3)c2)C1 (relative stereo) [Example 47, (1S,3R*)-1-(3-fluoro-2-methylphenyl)-N-hydroxy-3-(1-(2-morpholinoethyl)-1H-pyrazol-4-yl)cyclopentanecarboxamide]
– | 1120 nM | Cc1c(F)cccc1[C@@]1(C(=O)NO)CC[C@@H](c2ccccc2)C1 (stereo in doubt) [Example 7, (1R*,3R*)-1-(3-fluoro-2-methylphenyl)-N-hydroxy-3-phenylcyclopentanecarboxamide]
– | 380 nM | Cc1c(F)cccc1[C@]1(C(=O)NO)CC[C@@H](c2ccc3sc(C4CC4)nc3c2)C1 (relative stereo) [Example 80, (1 S,3R*)-3-(2-Cyclopropylbenzo[c]thiazol-5-yl)-1-(3-fluoro-2-methylphenyl)-N-hydroxycyclopentanecarboxamide]
– | 7850 nM | Cc1c(F)cccc1[C@]1(C(=O)NO)CC[C@@H](c2ccccc2)C1 (stereo in doubt) [Example 5, (1S*,3R*)-1-(3-fluoro-2-methylphenyl)-N-hydroxy-3-phenylcyclopentanecarboxamide]

Source: patent publication US9783488B2 (CHDI Foundation, Inc., priority 2013, dated 2017)
